The text below walks through data of patent US5567722A, “Cyanoguanidines as K-channel blockers” (The Upjohn Company, priority 1995, dated 1996).

Molecules are shown by their SMILES. Like-named read-outs stand apart in the source and are kept apart here.

Assay [1] has as its system K+ channel of rabbit mesenteric artery (RMA). The experiment in a line: K+ channel antagonism: inhibition of pinacidil-induced relaxation of norepinephrine-contracted rabbit mesenteric artery (RMA) rings. The format is cell-based. Conditions: Oryctolagus cuniculus. On the procedure:
The results for potassium channel blocking were obtained by using isolated rabbit mesenteric artery (RMA) procedures. Norepinephrine (5 μM) was used to contract the RMA rings twice, with an hour separating the two contractions. During this hour the tissues equilibrated in physiological salt solution at a resting tension of 1 gram. Upon the plateau of the second contraction 1 μM pinacidil was added to all tissues and the resulting relaxation time course was studied for thirty minutes. […] By studying the ability of the test compounds to inhibit this pinacidil-induced relaxation, the degree of potassium antagonism could be determined. The compounds were applied to the tissues for one hour between the two contractions and the pinacidil-induced relaxation was studied in the continuing presence of the compounds. Thus, the total time of pretreatment with the test compound was 75 minutes before the addition of pinacidil. […]
Data for K^+ channel antagonist activity on rabbit mesenteric artery (RMA) and natriuretic efficacy after […] (IP) administration to rats are collected in Tables III and IV. It was known, for example, that a compound where both methyl groups on the benzylic carbon of Example 9 had been removed was a weak PCO rather than a K^+ channel antagonist. Similarly a compound in which the phenyl was attached directly to the guanidine nitrogen was also a K^+ channel agonist.
^a This is a measure of a compound's ability to inhibit the relaxatio
of norepinephrine (5 μM) contracted rabbit mesenteric artery rings by
pinacidil (1 μM). It is expressed as percent inhibition (mean ± sem
at an inhibitor concentration of 5 μM. Compounds with 65% or g greater
inhibition at 5 μM are considered to be active, with 2065\% inhibition

The nature of assay [2]: Diuretic screen: 5 h net natriuretic efficacy (urinary Na+ excretion) in rats. It counts as in vivo, female Harlan Sprague-Dawley rats.
In assay [3] the test system is K+ channel. The settings on record: 1 μM; norepinephrine-contracted RMA rings; cited from earlier work.
[4] abbreviates: Table IV, lowest concentration giving >20% inhibition or lowest tested, read-out: RMA K+ Channel Antagonism % I (conc. μM).

Turning to `CC(NC(=NC#N)Nc1cccnc1)c1cccc(F)c1F` (stereo not shown) [Compound 58], the inhibition at 0.5 µM in assay [1] (Table IV, 0.5 μM, lowest concentration giving >20% inhibition or lowest tested, read-out: RMA K+ Channel Antagonism % I (conc. μM)) turned out to be 92.1%. Consider `CC(C)Nc1ccc(NC(=NC#N)N[C@H](C)c2ccccc2)cn1` [Compound 59], for which, in assay [1] (setting [4]), the inhibition at 5 µM was 8.5%. Regarding `N#CN=C(Nc1cccnc1)NC1(c2ccccc2)CC1` [Compound 63], in assay [1] (setting [4]), the inhibition at 5 µM was 86%. For the compound `CC(N/C(=N\C#N)Nc1ccncc1)C(C)(C)C` (stereo not shown) [Pinacidil], in assay [1] (0.25 h, Table III, inhibition of relaxation by pinacidil 1 μM at 15 min, mean ± sem (number of rings), >=65% considered active, <20% inactive, read-out: RMA K+ Channel Antagonism % I at 5 μM), the inhibition at 5 µM came out at 0%. In addition, the “diuretic response (in words)” value in assay [2] (5 mg/kg oral dosage) was “Antidiuresis”. Moreover, the “5 h Net Natriuretic Efficacy” value in assay [2] (Table III, 5 mg/kg oral dosage (footnote j)) is -60 μEq Na+/mg/kg. Moreover, in assay [3], the “K+ channel dependent vasodilation (in words)” value is given as “maximal K^+ channel dependent vasodilation”.
